From ChEMBL document CHEMBL5724796, “Tm Shift (DSF) assay results for EUbOPEN Chemogenomics Library” (2024) come the findings set out here.

In one experiment the target is T1, Peregrin (Homo sapiens) (UniProt P55201).
T1 sequence (whole entry): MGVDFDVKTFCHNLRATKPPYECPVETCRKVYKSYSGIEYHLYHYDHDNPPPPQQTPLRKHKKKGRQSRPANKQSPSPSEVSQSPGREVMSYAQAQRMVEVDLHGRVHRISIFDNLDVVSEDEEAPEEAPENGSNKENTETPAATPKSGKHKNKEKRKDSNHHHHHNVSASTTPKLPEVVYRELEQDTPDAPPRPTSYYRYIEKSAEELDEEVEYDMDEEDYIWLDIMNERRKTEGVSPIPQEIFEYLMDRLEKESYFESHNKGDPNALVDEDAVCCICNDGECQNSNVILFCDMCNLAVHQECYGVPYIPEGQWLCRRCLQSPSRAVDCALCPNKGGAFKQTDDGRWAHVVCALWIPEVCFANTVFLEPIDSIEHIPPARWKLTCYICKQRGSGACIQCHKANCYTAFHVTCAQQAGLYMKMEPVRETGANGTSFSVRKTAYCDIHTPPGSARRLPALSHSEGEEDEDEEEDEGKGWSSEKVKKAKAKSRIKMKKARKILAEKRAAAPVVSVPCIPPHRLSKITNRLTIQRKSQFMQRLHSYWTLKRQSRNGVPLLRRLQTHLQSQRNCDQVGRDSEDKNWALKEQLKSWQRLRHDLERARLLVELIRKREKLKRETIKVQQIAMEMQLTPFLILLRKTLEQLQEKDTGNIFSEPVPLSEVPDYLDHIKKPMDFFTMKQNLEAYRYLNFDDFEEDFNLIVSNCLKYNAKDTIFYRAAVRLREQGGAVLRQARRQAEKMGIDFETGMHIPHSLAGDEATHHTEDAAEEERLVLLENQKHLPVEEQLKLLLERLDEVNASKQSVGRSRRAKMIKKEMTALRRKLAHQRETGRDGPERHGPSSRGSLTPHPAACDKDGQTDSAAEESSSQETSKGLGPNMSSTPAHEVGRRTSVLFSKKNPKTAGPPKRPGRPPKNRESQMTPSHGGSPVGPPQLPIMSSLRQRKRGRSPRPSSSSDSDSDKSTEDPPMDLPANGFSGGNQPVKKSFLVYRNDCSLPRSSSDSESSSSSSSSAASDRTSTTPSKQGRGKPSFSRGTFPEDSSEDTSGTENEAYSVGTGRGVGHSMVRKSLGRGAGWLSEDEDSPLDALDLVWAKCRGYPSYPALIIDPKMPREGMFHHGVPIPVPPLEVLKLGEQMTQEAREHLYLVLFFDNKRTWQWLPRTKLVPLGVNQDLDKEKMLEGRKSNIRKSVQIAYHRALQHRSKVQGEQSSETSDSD
To be noted: Compound concentration 20.0 uM.

The target of experiment [1] is Fibroblast growth factor receptor 2 (Homo sapiens) (UniProt P21802). The following applies: Compound concentration 20.0 uM.
Sequence of Fibroblast growth factor receptor 2 (Homo sapiens) (P21802 22-821 limits assumed): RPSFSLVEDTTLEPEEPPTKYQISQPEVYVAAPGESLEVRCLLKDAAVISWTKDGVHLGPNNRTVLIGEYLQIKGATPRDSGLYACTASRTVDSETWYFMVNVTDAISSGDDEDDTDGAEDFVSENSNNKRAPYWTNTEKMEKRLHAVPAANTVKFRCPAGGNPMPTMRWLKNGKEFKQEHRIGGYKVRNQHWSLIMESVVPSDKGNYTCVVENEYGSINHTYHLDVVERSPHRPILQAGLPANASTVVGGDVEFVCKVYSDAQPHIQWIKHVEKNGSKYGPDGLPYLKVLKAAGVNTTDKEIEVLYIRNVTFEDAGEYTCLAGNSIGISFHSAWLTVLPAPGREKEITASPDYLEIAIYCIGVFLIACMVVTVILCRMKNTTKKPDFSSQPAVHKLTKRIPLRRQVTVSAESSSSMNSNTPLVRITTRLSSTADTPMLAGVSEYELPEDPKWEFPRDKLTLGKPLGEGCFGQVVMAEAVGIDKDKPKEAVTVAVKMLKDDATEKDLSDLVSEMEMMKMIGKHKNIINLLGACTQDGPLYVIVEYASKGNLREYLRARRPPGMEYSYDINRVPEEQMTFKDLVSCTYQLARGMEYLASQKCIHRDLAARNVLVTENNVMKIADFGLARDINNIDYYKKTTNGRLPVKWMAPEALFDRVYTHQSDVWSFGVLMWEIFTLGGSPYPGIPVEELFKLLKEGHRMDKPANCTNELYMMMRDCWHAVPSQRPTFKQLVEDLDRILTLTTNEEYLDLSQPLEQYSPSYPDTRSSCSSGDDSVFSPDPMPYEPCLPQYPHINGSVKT
Description: Thermal Shift Assay. Domain: start/stop: T457-E768

The structures appear in SMILES notation. Residues, ends and D or L forms follow the SMILES beside them. *: point of attachment. Boc = CC(C)(C)OC(=O)*; CH2Cl = ClC*

A word on the ΔTm: it is the change in melting temperature against a reference sample. For `CN1C(=O)c2c(nn(Cc3ccc(-c4cccc(F)n4)cc3)c2Nc2ccccc2)N2C1=N[C@@H]1CCC[C@@H]12`, the ΔTm is -0.45 °C at Peregrin (Homo sapiens) and -0.21 °C in experiment [1].

For `CCN(CC)c1ccc(C2=NNC(=O)C[C@H]2C)cc1[N+](=O)[O-]`, the ΔTm was 1.09 °C at Peregrin (Homo sapiens) and 0.2 °C in experiment [1].

On to `CC(C)(C)OC(=O)N1CCN(C(=O)n2cc(-c3ccc(OC(F)(F)F)cc3)nn2)C(Cc2ccccc2)C1` (configuration not stated), for which the ΔTm at Peregrin (Homo sapiens) was 0.21 °C; in experiment [1] it was -0.77 °C.

For `NC(=O)c1cc(F)cc2c1C(=O)N(C1CCN(C3CCC(F)(F)CC3)CC1)C2`, the ΔTm at Peregrin (Homo sapiens) was -0.15 °C; in experiment [1], -0.03 °C.

On to `Cc1ccnc(NS(=O)(=O)c2ccc(NC(=O)Nc3ccc(S(=O)(=O)Nc4nccc(C)n4)cc3)cc2)n1`, for which the figures for the ΔTm (at Peregrin (Homo sapiens); in experiment [1]) were 0.27 °C and -0.47 °C, respectively.

`CC(=O)N[C@@H](CC(C)C)C(=O)N[C@@H](CCC(=O)O)C(=O)N[C@@H](Cc1cnc[nH]1)C(=O)N[C@@H](CC(=O)O)C(=O)CCl` (Ac-LEHD-CH2Cl): the ΔTm at Peregrin (Homo sapiens) is -1.13 °C; in experiment [1] it was 0.65 °C.

Consider `CC(C)(C)OC(=O)NCCCCCN(CCc1ccccc1)C(=O)n1cc(-c2ccc(OC(F)(F)F)cc2)nn1`, for which the ΔTm on Peregrin (Homo sapiens) was 1.14 °C; in experiment [1], -1.05 °C.

For `CS(=O)(=O)c1ccc(-c2nnc(C=Cc3nnc(-c4ccc(C#N)cc4)o3)n2-c2ccccc2Cl)nc1`, the ΔTm on Peregrin (Homo sapiens) (Protein concentration 2.0 uM) was determined as 2 °C; in experiment [1], 0.13 °C.

Turning to `CC(C)(O)c1ccc(-c2nc3c(F)cc(F)cc3c(=O)[nH]2)cc1`, the ΔTm is -0.9 °C on Peregrin (Homo sapiens) and -3.32 °C in experiment [1].

Consider `OC[C@H]1O[C@@H](c2ccc(Cl)c(Cc3ccc(OCCOC4CC4)cc3)c2)[C@H](O)[C@@H](O)[C@@H]1O`, for which the ΔTm on Peregrin (Homo sapiens) was 0.43 °C; in experiment [1], -0.3 °C.

Regarding `O=C(NCCCc1ccccc1)c1cccc(-c2cc(O)c3ncccc3c2)c1`, the figures for the ΔTm (at Peregrin (Homo sapiens); in experiment [1]) were 3.29 °C and 0.19 °C, respectively.

For the compound `Cc1sc2c(c1C)C(c1ccc(Cl)cc1)=N[C@@H](CC(=O)OC(C)(C)C)c1nnc(C)n1-2`, the values for the ΔTm (on Peregrin (Homo sapiens); in experiment [1]) were -1.61 °C and 0.6 °C, respectively.

Take `COc1ccc2nc3[nH]nc(C)c3c(NCCOCCO)c2c1`: the figures for the ΔTm (on Peregrin (Homo sapiens); in experiment [1]) were -1.14 °C and 0.8 °C, respectively.

On to `CS(=O)(=O)N1CCN(C(=O)c2cnc3ccc(F)cc3c2-c2ccc(C3(C#N)CC3)cc2)CC1`, for which the ΔTm at Peregrin (Homo sapiens) was 0.38 °C; in experiment [1] it was 0.1 °C.

Turning to `CN(C)Cc1ccc(-c2nc3cccc4c3n2CCNC4=O)cc1`, the ΔTm was determined as 0.88 °C on Peregrin (Homo sapiens) and 0.73 °C in experiment [1].

With `CC(=O)N1CCc2c(c(N3CCCc4cc(-c5cnn(C)c5)c(C(F)F)cc43)nn2C2CCOCC2)C1`, the ΔTm at Peregrin (Homo sapiens) is -1.44 °C; in experiment [1] it was 0.45 °C.

As to `Cc1ccc2[nH]c(-n3nc(C)c(Cc4ccccc4)c3O)nc2c1`, the ΔTm on Peregrin (Homo sapiens) is 0.31 °C; in experiment [1], -0.11 °C.

For the compound `COC[C@@H]1CCCN1S(=O)(=O)c1ccc2c(c1)C(=O)C(=O)N2`, the ΔTm is -0.85 °C at Peregrin (Homo sapiens) and 0.48 °C in experiment [1].

Consider `COc1cc(Nc2ncc(F)c(Nc3ccc4c(n3)N(COP(=O)(O)O)C(=O)C(C)(C)O4)n2)cc(OC)c1OC`, for which the results for the ΔTm (at Peregrin (Homo sapiens); in experiment [1]) were -0.81 °C and 4.69 °C, respectively.

Consider `Cc1nn(CC(F)(F)F)cc1Nc1ncc(Br)c(NCc2ccc(S(N)(=O)=O)cc2)n1`, for which the values for the ΔTm (at Peregrin (Homo sapiens); in experiment [1]) were -0.36 °C and 2.95 °C, respectively.

As for `CCn1c(=O)c(C)cn(Cc2nnc(-c3ccc(F)c(OC)c3F)s2)c1=O`, the ΔTm is -0.72 °C on Peregrin (Homo sapiens) and 0.75 °C in experiment [1].

Take `OC1CN=C2c3ccn([C@@H]4O[C@H]([C@H](O)c5ccc(Cl)cc5)[C@@H](O)[C@H]4O)c3N=CN21` (some centres not stated): the results for the ΔTm (on Peregrin (Homo sapiens); in experiment [1]) were -0.74 °C and 0.52 °C, respectively.

Turning to `O=C(N(CCc1ccccc1)C1CCCCC1)n1ncc(-c2ccc(OC(F)(F)F)cc2)n1`, the ΔTm at Peregrin (Homo sapiens) was 1.62 °C; in experiment [1], -0.24 °C.

With `C[C@@H]1CCC[C@H](C)N1NC(=O)c1ccc(Cl)c(S(N)(=O)=O)c1`, the ΔTm at Peregrin (Homo sapiens) was 0.5 °C; in experiment [1], -0.13 °C.

On to `Cc1ccc2c(c1)nc(/C=C/c1cccc3cccnc13)n2-c1cccc(OCCCN2CCN(C)CC2)c1`, for which the ΔTm on Peregrin (Homo sapiens) was determined as 0.16 °C; in experiment [1] it was 0.24 °C.

`N[C@@H](CCCCB(O)O)C(=O)O`: the ΔTm at Peregrin (Homo sapiens) was 0.2 °C; in experiment [1], 0.29 °C.

For `CNCCC(Oc1ccccc1OC)c1ccccc1` (configuration not stated), the ΔTm at Peregrin (Homo sapiens) amounted to 1.17 °C; in experiment [1], 0.13 °C.

Turning to `CC(C)(C)OC(=O)N1CCC[C@H]1C(=O)N1CCC[C@H]1C=O` (Boc-Pro-Pro-aldehyde), the ΔTm is -0.14 °C at Peregrin (Homo sapiens) and 0.01 °C in experiment [1].

Regarding `CC(C)N(C[C@H]1O[C@@H](n2cnc3c(N)ncnc32)[C@H](O)[C@@H]1O)[C@H]1C[C@@H](CCc2nc3cc(C(C)(C)C)ccc3[nH]2)C1`, the figures for the ΔTm (at Peregrin (Homo sapiens); in experiment [1]) were -1.35 °C and 0.82 °C, respectively.

Regarding `COc1ccc(-c2ccc3c(c2)COC3=O)n2nc(C3(C(=O)OCC(C)C)CC3)nc12`, the ΔTm at Peregrin (Homo sapiens) came out at 0.76 °C; in experiment [1] it was 0.71 °C.

`COc1ncc(C)cc1CC[C@@](O)(CC(=O)O)C(=O)O`: the ΔTm came out at 1.67 °C at Peregrin (Homo sapiens) and 0.32 °C in experiment [1].

Regarding `O=S(=O)(CSc1nnc(Br)n1Cc1ccc(Br)c2ccccc12)Nc1cccnc1`, the figures for the ΔTm (on Peregrin (Homo sapiens); in experiment [1]) were 1.59 °C and -0.32 °C, respectively.

`N=C(N)NC(=O)c1cnn(-c2cccc3ncccc23)c1C1CC1`: the figures for the ΔTm (at Peregrin (Homo sapiens); in experiment [1]) were -0.17 °C and -0.51 °C, respectively.

For `Nc1ncnc2c1c(I)cn2[C@@H]1O[C@H](CO)[C@@H](O)[C@H]1O`, the ΔTm at Peregrin (Homo sapiens) amounted to 2.98 °C; in experiment [1], 2.17 °C.

As to `CC(C)(C)NS(=O)(=O)c1ccc(NC(=O)[C@H](Cc2ccccc2)NC(=O)c2ccc(F)cc2)cc1`, the ΔTm at Peregrin (Homo sapiens) was found to be 0.73 °C; in experiment [1], 0.56 °C.

Turning to `CC(=Cc1cc(C)ccc1C=C(C)C(=O)NC(=N)N)C(=O)N=C(N)N`, the ΔTm on Peregrin (Homo sapiens) is -1.11 °C; in experiment [1], -0.04 °C.

Regarding `C[C@H](NC(=O)[C@H](Cc1ccccc1)NC(=O)OCc1ccccc1)C(=O)CF`, the ΔTm on Peregrin (Homo sapiens) is -1.31 °C; in experiment [1], 0.14 °C.

With `CCCn1/c(=N/C(=O)c2cccc(C(N)=O)c2)[nH]c2ccccc21`, the ΔTm on Peregrin (Homo sapiens) was -1.26 °C; in experiment [1], 0.22 °C.

`OC[C@H]1O[C@@H](c2ccc(F)c(Cc3cc4ccccc4s3)c2)[C@H](O)[C@@H](O)[C@@H]1O`: the ΔTm at Peregrin (Homo sapiens) was 1.12 °C; in experiment [1], -0.55 °C.

For the compound `COC(=O)[C@@H]1CC2=CC(=O)CC[C@]2(C)[C@@]23O[C@@H]2C[C@@]2(C)[C@@H](CC[C@@]24CCC(=O)O4)[C@H]13`, the ΔTm is -1.07 °C on Peregrin (Homo sapiens) and 1.06 °C in experiment [1].

For `CC(C)Oc1ccc(C=O)cc1`, the ΔTm was -0.07 °C at Peregrin (Homo sapiens) and 0.13 °C in experiment [1].

In the case of `Cc1nnn(C)c1-c1cnc2c3cc4cnn(C)c4cc3n([C@H](c3ccccc3)C3CCOCC3)c2c1`, the ΔTm at Peregrin (Homo sapiens) is -0.09 °C; in experiment [1], -0.32 °C.

For `O=C(C1CC1)N1CCN(Cn2sc3ccccc3c2=O)CC1`, the figures for the ΔTm (on Peregrin (Homo sapiens); in experiment [1]) were -1.36 °C and 0.46 °C, respectively.

As for `CC(C)(C)c1ccc(CN(C(=O)CN(Cc2c(F)c(F)c(F)c(F)c2F)S(=O)(=O)c2ccc(F)cc2)c2ccc(C(=O)NO)cc2)cc1`, the ΔTm on Peregrin (Homo sapiens) is -3.76 °C; in experiment [1], 1.58 °C.

Turning to `COc1cc(C)[nH]c(=O)c1CNC(=O)c1c(C)n([C@H](C)C2CCOCC2)c2ccccc12`, the results for the ΔTm (at Peregrin (Homo sapiens); in experiment [1]) were -1.84 °C and 0.42 °C, respectively.

For `C[C@@H](Nc1nc2c(cnn2C2CCCC2)c(=O)[nH]1)C(=O)N1CC[C@H](F)C1`, the ΔTm is -0.37 °C at Peregrin (Homo sapiens) and -0.04 °C in experiment [1].

Take `CCCC[C@]1(CC)CS(=O)(=O)c2cc(CNC(CC(=O)O)CC(=O)O)c(OC)cc2[C@@H](c2ccccc2)N1`: the ΔTm on Peregrin (Homo sapiens) turned out to be 1.87 °C; in experiment [1], 0.6 °C.

Regarding `CCCSc1nc(N[C@@H]2C[C@H]2c2ccc(F)c(F)c2)c2nnn([C@@H]3C[C@H](OCCO)[C@@H](O)[C@H]3O)c2n1`, the ΔTm on Peregrin (Homo sapiens) is 0.55 °C; in experiment [1] it was -0.32 °C.

Regarding `N#Cc1cc2cc(CN3CCC(Nc4ncnc5sc(CC(F)(F)F)cc45)CC3)ccc2[nH]1`, the ΔTm at Peregrin (Homo sapiens) came out at 1.21 °C; in experiment [1], 0.16 °C.

Regarding `COC(=O)[C@H]1[C@H]2C[C@@H]3c4[nH]c5cc(OC)ccc5c4CCN3C[C@H]2C[C@@H](OC(=O)c2cc(OC)c(OC)c(OC)c2)[C@@H]1OC`, the ΔTm at Peregrin (Homo sapiens) is 0.08 °C; in experiment [1], -0.07 °C.

Regarding `CC/C(=C(/CC)c1ccc(O)cc1)c1ccc(O)cc1`, the ΔTm on Peregrin (Homo sapiens) is -8.49 °C; in experiment [1], -8.29 °C.
